This passage reports ring closure, yield after HPLC, Ki and IC50 results from patent publication US11130769B2 (Prelude Therapeutics Incorporated, priority 2018, dated 2021).

The conditions of data set [1]: from C=CCOC(C)(C)C(=O)NS(=O)(=O)c1ccc2c(c1)N(C[C@@H]1CC[C@H]1[C@@H](C=C)NC(=O)OC)C[C@@]1(CCCc3cc(Cl)ccc31)CO2; rcm bond; 16-membered ring; Hoveyda-Grubbs II; DCE; 1.17 mM; 40.0 °C.
The next data set deals with MCL-1 (Homo sapiens (Human), UniProt Q07820). Description: Cell free Mcl-1:Bim affinity assay (fluorescence polarization competition). The class given is binding. Conditions: 15 nM MCL-1, 5 nM FITC-Bim, 1 hour at room temperature; class symbols; read-out: BIM_Ki. In a few lines:
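Fluorescence polarization competition: 10-point 3-fold compound dilutions displaced 5 nM FITC-Bim from 15 nM MCL-1 over 1 h at room temperature. Ki was derived from the fitted IC50 using the Nikolovska-Coleska equation, with percent inhibition normalized to DMSO and positive controls.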
(In general: Polarisation of emitted light reports the rotation of a fluorescent probe.)

The test system of another data set is H929 cells. Description: Cell viability assay (H929 10 FBS). The class given is cell-based. Conditions: Homo sapiens, NCI-H929, 24 hours, read-out: H929_10FBS IC50. In a few lines:
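ATP-based luminescence (CellTiter-Glo or ATPlite 1 Step, 30-60 min at RT) gauged viability of H929 myeloma cells after 24 h compound treatment at 37 °C. Cells plated at 4000 per well in 10% FBS RPMI 1640 supplemented with pyruvate, HEPES and glucose.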

Where only a bound is given, the exact number is not on record here.

Chain of MCL-1 (Q07820 whole entry): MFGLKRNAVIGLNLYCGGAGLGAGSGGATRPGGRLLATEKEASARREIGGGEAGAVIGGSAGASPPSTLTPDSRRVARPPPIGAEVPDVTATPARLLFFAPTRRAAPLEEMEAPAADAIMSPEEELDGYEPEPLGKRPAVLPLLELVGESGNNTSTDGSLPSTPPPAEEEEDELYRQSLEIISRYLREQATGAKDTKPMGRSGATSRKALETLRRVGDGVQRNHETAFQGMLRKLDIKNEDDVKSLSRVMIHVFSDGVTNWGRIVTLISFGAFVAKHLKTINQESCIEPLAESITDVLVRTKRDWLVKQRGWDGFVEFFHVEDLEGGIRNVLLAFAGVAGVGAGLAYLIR

For `COC(=O)N[C@@H]1/C=C/COC(C)(C)C(=O)NS(=O)(=O)c2ccc3c(c2)N(C[C@@H]2CC[C@H]21)C[C@@]1(CCCc2cc(Cl)ccc21)CO3` [Example 251, Methyl N-[(3R,6R,7R,8E,22S)-6′-Chloro-12,12-dimethyl-13,15,15-trioxo-spiro[11,20-dioxa-15-thia-1,14-diazatetracyclo[14.7.2.03,6.019,24]pentacosa-8,16(25),17,19(24)-tetraene-22,1′-tetralin]-7-yl]carbamate], in data set [1], the ring closure, yield after HPLC is 18.4%. The Ki at MCL-1 fell in the range of 1 to 100 nM. The IC50 (commonly the point on the concentration scale where inhibition reaches its midpoint) with H929 cells was above 1000 nM.
